Assay results reported in publication PMC12283027, “Development of Potent and Selective RIPK1 Degraders Targeting Its Nonenzymatic Function for Cancer Treatment” (Journal of Medicinal Chemistry, 2025).

Biological target: T1, Receptor-interacting protein kinase 1 (RIPK1) (Homo sapiens, UniProt Q13546)
T1 construct: with VHL
Assay: cell-based
Set-up: HiBiT luminescence of CRISPR-tagged endogenous RIPK1 (C-terminal HiBiT) after PROTAC treatment; degradation DC50 and Dmax
Settings: HEK293T-RIPK1-HiBiT cells; read-out: Dmax (HEK293T-RIPK1-HiBiT cell line)
Procedure: Screening of RIPK1 Degraders Using HEK-293T-RIPK1-HiBiT cells  3 Primary screening RIPK1 degraders using HEK293T-RIPK1-HiBiT cell line. Cells were seeded in 96-well plates and treated with test compounds for 20 h. After treatment, Bioluminescence signal reflecting RIPK1 protein level was generated by adding Nano-Glo HiBiT detect reagent. A) Bioluminescence signal was visualized using Bio-Rad ChemiDoc MP Imaging system. The grayscale intensity is positively correlated with protein abundance. B) Relative luminescence Units (RLUs) in each well was measured using CLARIOstar plate reader. DC50 values were calculated by nonlinear regression analysis in GraphPad Prism software. DC50 = dose that reduces RIPK1 protein by 50%. D max = maximum reduction of RIPK1 protein achieved by the compound. Guide RNA oligos for RIPK1 (foward: CACCGA-GCCCAT-CCAGGG-TTAGTTC. reverse: AAACGA-ACTAAC-CCTGGA-TGGGCTC) were cloned into Cas9 expression plasmid (pSpCas9–2A-GFP purchased from Addgene), and cotransfected with donor DNA oligo using FuGENE HD Transfection Reagent (Promega). GFP positive cells were FACS sorted and single clones were screened for HiBiT signal by Nano Glo HiBiT Lytic Detection System (Promega).

T1 sequence (Q13546 whole entry): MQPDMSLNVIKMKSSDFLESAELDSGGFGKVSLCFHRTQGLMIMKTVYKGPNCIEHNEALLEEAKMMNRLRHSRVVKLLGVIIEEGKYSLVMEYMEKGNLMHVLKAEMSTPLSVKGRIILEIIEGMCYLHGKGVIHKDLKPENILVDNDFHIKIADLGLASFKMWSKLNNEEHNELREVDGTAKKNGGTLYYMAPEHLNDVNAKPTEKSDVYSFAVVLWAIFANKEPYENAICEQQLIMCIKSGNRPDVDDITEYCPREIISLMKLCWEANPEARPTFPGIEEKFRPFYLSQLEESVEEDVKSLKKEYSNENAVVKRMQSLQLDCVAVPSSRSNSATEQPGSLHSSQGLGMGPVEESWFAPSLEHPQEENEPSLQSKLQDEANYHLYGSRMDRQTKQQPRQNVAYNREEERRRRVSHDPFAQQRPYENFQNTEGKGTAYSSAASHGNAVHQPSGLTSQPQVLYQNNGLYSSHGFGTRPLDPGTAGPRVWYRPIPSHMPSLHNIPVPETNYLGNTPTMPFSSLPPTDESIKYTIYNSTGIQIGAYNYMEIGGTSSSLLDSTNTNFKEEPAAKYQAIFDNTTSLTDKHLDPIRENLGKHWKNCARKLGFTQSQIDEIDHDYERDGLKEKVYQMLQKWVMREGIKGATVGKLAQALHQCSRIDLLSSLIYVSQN
T1 sequence (P40337 whole entry partner): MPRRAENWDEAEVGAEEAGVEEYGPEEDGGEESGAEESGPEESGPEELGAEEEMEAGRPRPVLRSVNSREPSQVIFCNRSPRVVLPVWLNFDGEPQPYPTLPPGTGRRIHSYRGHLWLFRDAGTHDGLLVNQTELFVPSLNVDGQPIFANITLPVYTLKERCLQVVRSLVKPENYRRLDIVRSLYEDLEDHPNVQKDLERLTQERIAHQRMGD

Dmax [%]	Structure (SMILES)
95	Cc1ncsc1-c1ccc([C@H](C)NC(=O)[C@@H]2C[C@@H](O)CN2C(=O)[C@@H](NC(=O)CCCOc2ccc(NC(=O)Cn3cc(-c4cnc(N)c5c(-c6ccc7c(c6)CCN7C(=O)Cc6ccccc6)csc45)cn3)cc2)C(C)(C)C)cc1 [217-11]
81	Cc1ncsc1-c1ccc([C@H](C)NC(=O)[C@@H]2C[C@@H](O)CN2C(=O)[C@@H](NC(=O)CCCOc2ccc(CCNC(=O)Cn3cc(-c4cnc(N)c5c(-c6ccc7c(c6)CCN7C(=O)Cc6ccccc6)csc45)cn3)cc2)C(C)(C)C)cc1 [204-6]
93	Cc1ncsc1-c1ccc([C@H](C)NC(=O)[C@@H]2C[C@@H](O)CN2C(=O)[C@@H](NC(=O)CN2CCN(CC3CCN(CC4CCN(C(=O)Cn5cc(-c6cnc(N)c7c(-c8ccc9c(c8)CCN9C(=O)Cc8ccccc8)csc67)cn5)CC4)CC3)CC2)C(C)(C)C)cc1 [225-5, (2S,4R)-1-((S)-2-(2-(4-((1-((1-(2-(4-(4-Amino-3-(1-(2-phenylacetyl)indolin-5-yl)thieno[3,2-c]pyridin-7-yl)-1H-pyrazol-1-yl)acetyl)piperidin-4-yl)methyl)piperidin-4-yl)methyl)piperazin-1-yl)acetamido)-3,3-dimethylbutanoyl)-4-hydroxy-N-((S)-1-(4-(4-methylthiazol-5-yl)phenyl)ethyl)pyrrolidine-2-carboxamide]
93	Cc1ncsc1-c1ccc([C@H](C)NC(=O)[C@@H]2C[C@@H](O)CN2C(=O)[C@@H](NC(=O)COCCOCCOc2ccc(CNC(=O)Cn3cc(-c4cnc(N)c5c(-c6ccc7c(c6)CCN7C(=O)Cc6ccccc6)csc45)cn3)cc2)C(C)(C)C)cc1 [224-7]
